Results on three compounds are retold here after patent publication US10751338B2, “Sustained-release voriconazole-containing thermogel and uses thereof” (priority 2017, dated 2020).

Usually MIC stands for the smallest concentration in the dilution series that meets the test's criterion for growth inhibition.

The nature of data set [1]: Ex-vivo trans-corneal fluorescein permeation, Franz diffusion cell (Example 4). In kind it is in vitro ADME, horse. The note with it: 10 μM sodium fluorescein, 6 hours, 37° C. Here is the method: Fresh equine corneas used in the experiment were obtained from horses enrolled in terminal laboratories performed at the AULATH. Corneoscleral buttons (16 mm diameter) were dissected using standard eye bank technique within 2 hours of enucleation. Fluorescent permeation experiments using a Franz diffusion cell method were performed to examine the integrity of the epithelial barrier function during the times studied (2 and 6 hours). Corneas were mounted horizontally between the donor and the receiving compartments of the diffusion cells (exposure window 0.64 cm^2), which were maintained at 37° C. (see FIGS. 8A and 8B).
Samples (1 ml PBS pH 7.4) were removed from the receiving compartment hourly and replaced with fresh receiving fluid. The fluorescent intensities of the receiving solution samples were analyzed using a microplate spectrofluorometer (Fluostar, BMG Labtech, Ortenberg, Germany) and a 96 well plate (Costar, Corning, N.Y.). A standard solution of NaF was prepared in PBS with a concentration range of 30 μg/ml to 0.12 μg/ml. Fluorescence was determined in a spectrofluorometer at excitation and emission wavelengths of 490 nm and 512 nm, respectively. All groups were tested in triplicate. The results were expressed as mean value±standard error of the mean (SEM).

Data set [2] can be described thus: In vitro release of voriconazole from the thermogel (Example 5). In kind it is physicochemical. Here is the method:
Each formulation was tested in triplicate.
The injection volume was 100 μl.

Data set [3] relates to common equine fungal pathogens. The following applies: target MIC; cited from earlier work.

Molecules are shown by their SMILES. Converted amounts (≈) assume the structure as drawn.

As for `O=C1OC2(c3ccc(O)cc3Oc3cc(O)ccc32)c2ccccc21` [fluorescein, sodium fluorescein], in data set [1], the “Fluorescein concentration in receiving compartment versus negative control” value is “not significantly different”.
With `C[C@@H](c1ncncc1F)[C@](O)(Cn1cncn1)c1ccc(F)cc1F` [Group 6, voriconazole], the “Day by which voriconazole was undetectable” value in data set [2] (PBS samples) was not above 6 days. In data set [2] (mean, PBS, 34.5° C.), the UC24 came to 4133 µg·days/mL and the UC28 worked out at 4135 µg·days/mL. Besides, the K release in data set [2] (mean, first-order release) was determined as 0.7558 day⁻¹.
Consider `C[C@@H](c1ncncc1F)[C@](O)(Cn1cncn1)c1ccc(F)cc1F` [voriconazole], for which the MIC in data set [3] was 0.5 µg/mL (≈ 1.43 µM).
